Results as given in patent US4011390A, “Semi-synthetic aminocyclitol aminoglycoside antibiotics and methods for the preparation thereof” (Schering-Plough Corporation, priority 1974, dated 1977).
Values after ≈ are worked out from the molar mass of the structure shown. Where two headings read alike, the source gives them in different places.

What was measured:
Bacillus subtilis [1] = assay: Disc test, Bauer-Kirby technique with 10 Mcg. discs; assay type: cell-based; conditions: Bacillus subtilis, ATCC6633, strain ATCC 6633
From the text: (§1) Disc Test Results (Replicate Tests) With The Mutamicins, Sisomicin and
(§2) Bauer-Kirby Technique^1 With 10 Mcg. Discs
(§3) ^1 Bauer, Kirby, Sherris and Turck, American Journal of Clinical

Escherichia coli [2] = assay: as above; assay type: cell-based; conditions: Escherichia coli, read-out: Zone Size
From the text: as §1, §2, §3

Klebsiella pneumoniae [3] = assay: as above; assay type: cell-based; conditions: Klebsiella pneumoniae
From the text: as §1, §2, §3

Providence 164 = assay: as above; assay type: cell-based; conditions: strain 164
From the text: as §1, §2, §3

Pseudomonas aeruginosa [4] = assay: as above; assay type: cell-based; conditions: Pseudomonas aeruginosa
From the text: as §1, §2, §3

Staphylococcus aureus [5] = assay: as above; assay type: cell-based; conditions: Staphylococcus aureus
From the text: as §1, §2, §3

Streptococcus pyogenes [6] = assay: as above; assay type: cell-based; conditions: Streptococcus pyogenes
From the text: as §1, §2, §3

Aspergillus niger = assay: MIC in Mueller-Hinton Broth pH 7.2; assay type: cell-based; conditions: Mueller-Hinton Broth pH 7.2, read-out: MIC
From the text: (§4) In vitro Activity of the Mutamicins and Sisomicin
(§5) MIC's in Mueller-Hinton Broth pH 7.2

Bacillus subtilis [7] = assay: MIC in Mueller-Hinton Broth pH 7.2; assay type: cell-based; conditions: ATCC6633, strain ATCC 6633
From the text: as §4, §5

Candida albicans = assay: MIC in Mueller-Hinton Broth pH 7.2; assay type: cell-based; conditions: Mueller-Hinton Broth pH 7.2, read-out: MIC
From the text: as §4, §5

Escherichia coli [8] = assay: MIC in Mueller-Hinton Broth pH 7.2; assay type: cell-based
From the text: as §4, §5

Klebsiella pneumoniae [9] = assay: MIC in Mueller-Hinton Broth pH 7.2; assay type: cell-based
From the text: as §4, §5

Proteus rettgeri = assay: MIC in Mueller-Hinton Broth pH 7.2; assay type: cell-based; conditions: Providencia rettgeri; Mueller-Hinton Broth pH 7.2; read-out: MIC
From the text: as §4, §5

Providence = assay: MIC in Mueller-Hinton Broth pH 7.2; assay type: cell-based; conditions: strain (Genta. R.) 164
From the text: as §4, §5

Pseudomonas aeruginosa [10] = assay: MIC in Mueller-Hinton Broth pH 7.2; assay type: cell-based
From the text: as §4, §5

Salmonella typhimurium = assay: MIC in Mueller-Hinton Broth pH 7.2; assay type: cell-based; conditions: Salmonella enterica, strain B
From the text: as §4, §5

Serratia = assay: MIC in Mueller-Hinton Broth pH 7.2; assay type: cell-based; conditions: strain 127, Mueller-Hinton Broth pH 7.2, read-out: MIC
From the text: as §4, §5

Staphylococcus aureus [11] = assay: MIC in Mueller-Hinton Broth pH 7.2; assay type: cell-based
From the text: as §4, §5

Streptococcus pyogenes [12] = assay: MIC in Mueller-Hinton Broth pH 7.2; assay type: cell-based
From the text: as §4, §5

Trichophyton rubrum = assay: MIC in Mueller-Hinton Broth pH 7.2; assay type: cell-based; conditions: Mueller-Hinton Broth pH 7.2, read-out: MIC
From the text: as §4, §5

Escherichia coli [13] = assay: Protection Tests in Mice; assay type: in vivo
From the text: (§6) In vivo Activity of the Mutamicin 1 and Sisomicin
(§7) Protection Tests in Mice

Pseudomonas aeruginosa [14] = assay: Protection Tests in Mice; assay type: in vivo
From the text: as §6, §7

Staphylococcus = assay: Protection Tests in Mice; assay type: in vivo; conditions: Staphylococcus Gray, read-out: PD50
From the text: as §6, §7

Acute Toxicity = conditions: mouse, in vivo

## CN[C@@H]1[C@@H](O)[C@@H](O[C@H]2[C@H](N)[C@@H](O)[C@H](N)[C@@H](O[C@H]3OC(CN)=CC[C@H]3N)[C@@H]2O)OC[C@]1(C)O [Mutamicin 1]
Bacillus subtilis [1]
  zone of inhibition at 10 µg/disc: 31 mm
Escherichia coli [2]; ATCC10536, strain ATCC 10536, 10 Mcg. discs
  zone of inhibition at 10 µg/disc: 31 mm
Escherichia coli [2]
  zone of inhibition at 10 µg/disc: 11 mm
Escherichia coli [2]; strain 589, 10 Mcg. discs
  zone of inhibition at 10 µg/disc: 29 mm
Escherichia coli [2]; strain JR90, 10 Mcg. discs
  zone of inhibition at 10 µg/disc: 0 mm
Escherichia coli [2]; strain LA290/R55, 10 Mcg. discs
  zone of inhibition at 10 µg/disc: 29 mm
Escherichia coli [2]; strain Swidinsky 4195, 10 Mcg. discs
  zone of inhibition at 10 µg/disc: 28 mm
Escherichia coli [2]; strain W677/R55, 10 Mcg. discs
  zone of inhibition at 10 µg/disc: 30 mm
Klebsiella pneumoniae [3]; strain Ad 17
  zone of inhibition at 10 µg/disc: 24 mm
Klebsiella pneumoniae [3]; strain Ad 18
  zone of inhibition at 10 µg/disc: 26 mm
Klebsiella pneumoniae [3]; strain Georgetown 3020
  zone of inhibition at 10 µg/disc: 26 mm
Klebsiella pneumoniae [3]; strain Georgetown 3694
  zone of inhibition at 10 µg/disc: 26 mm
Providence 164
  zone of inhibition at 10 µg/disc: 15 mm
Pseudomonas aeruginosa [4]; strain Capetown 18
  zone of inhibition at 10 µg/disc: 19 mm
Pseudomonas aeruginosa [4]; strain D-2
  zone of inhibition at 10 µg/disc: 21 mm
Pseudomonas aeruginosa [4]; strain St. Michael 413
  zone of inhibition at 10 µg/disc: 27 mm
Pseudomonas aeruginosa [4]; strain St. Michael 762
  zone of inhibition at 10 µg/disc: 24 mm
Pseudomonas aeruginosa [4]; strain St. Michael 1262
  zone of inhibition at 10 µg/disc: 18 mm
Pseudomonas aeruginosa [4]; strain St. Michael 1395
  zone of inhibition at 10 µg/disc: 29 mm
Pseudomonas aeruginosa [4]; strain Stone 20
  zone of inhibition at 10 µg/disc: 31 mm
Pseudomonas aeruginosa [4]; strain Stone 39
  zone of inhibition at 10 µg/disc: 29 mm
Pseudomonas aeruginosa [4]; strain Stone 130
  zone of inhibition at 10 µg/disc: 14 mm
Pseudomonas aeruginosa [4]; strain Stone 138
  zone of inhibition at 10 µg/disc: 15 mm
Staphylococcus aureus [5]; ATCC6538P, strain ATCC 6538P
  zone of inhibition at 10 µg/disc: 26 mm
Staphylococcus aureus [5]; strain 59N
  zone of inhibition at 10 µg/disc: 26 mm
Staphylococcus aureus [5]; strain Wood
  zone of inhibition at 10 µg/disc: 28 mm
Staphylococcus aureus [5]; strain Ziegler
  zone of inhibition at 10 µg/disc: 25 mm
Streptococcus pyogenes [6]; strain B-Cruz
  zone of inhibition at 10 µg/disc: 17 mm
Streptococcus pyogenes [6]; strain C
  zone of inhibition at 10 µg/disc: 13 mm
Aspergillus niger
  MIC: > 10 µg/mL
Bacillus subtilis [7]
  MIC: 0.03 µg/mL (≈ 0.0647 µM)
Candida albicans
  MIC: > 25 µg/mL
Escherichia coli [8]; ATCC10536, pH 7.2, strain ATCC 10536
  MIC: 0.3 µg/mL (≈ 0.647 µM)
Escherichia coli [8]; pH 7.2, strain Baker 2
  MIC: 3 µg/mL (≈ 6.47 µM)
Escherichia coli [8]; pH 7.2, strain Fl4-Bk
  MIC: 3 µg/mL (≈ 6.47 µM)
Escherichia coli [8]; pH 7.2, strain Genta. adenyl LA290-R55
  MIC: 3 µg/mL (≈ 6.47 µM)
Escherichia coli [8]; pH 7.2, strain Genta. adenyl W677/R55
  MIC: 0.8 µg/mL (≈ 1.73 µM)
Escherichia coli [8]; pH 7.2, strain Kana. phosphor. 589
  MIC: 3 µg/mL (≈ 6.47 µM)
Escherichia coli [8]; pH 7.2, strain Kana. phosphor. C-13
  MIC: 3 µg/mL (≈ 6.47 µM)
Escherichia coli [8]; pH 7.2, strain Tobra. R 4195
  MIC: 3 µg/mL (≈ 6.47 µM)
Klebsiella pneumoniae [9]; pH 7.2, strain Ad 18
  MIC: 0.3 µg/mL (≈ 0.647 µM)
Klebsiella pneumoniae [9]; pH 7.2, strain Genta. adenyl 121
  MIC: 3 µg/mL (≈ 6.47 µM)
Klebsiella pneumoniae [9]; pH 7.2, strain Genta. adenyl 3020
  MIC: 0.3 µg/mL (≈ 0.647 µM)
Klebsiella pneumoniae [9]; pH 7.2, strain Genta. adenyl 3694
  MIC: 0.3 µg/mL (≈ 0.647 µM)
Klebsiella pneumoniae [9]; pH 7.2, strain Kana. phos. Ad 22
  MIC: 0.3 µg/mL (≈ 0.647 µM)
Proteus rettgeri
  MIC: 3 µg/mL (≈ 6.47 µM)
Providence
  MIC: > 25 µg/mL
Pseudomonas aeruginosa [10]; pH 7.2
  MIC: > 25 µg/mL
Pseudomonas aeruginosa [10]; pH 7.2, strain 762, Mueller-Hinton Broth pH 7.2, read-out: MIC
  MIC: 3 µg/mL (≈ 6.47 µM)
Pseudomonas aeruginosa [10]; pH 7.2, strain 1262, Mueller-Hinton Broth pH 7.2, read-out: MIC
  MIC: 3 µg/mL (≈ 6.47 µM)
Pseudomonas aeruginosa [10]; pH 7.2, strain 1395, Mueller-Hinton Broth pH 7.2, read-out: MIC
  MIC: 3 µg/mL (≈ 6.47 µM)
Pseudomonas aeruginosa [10]; pH 7.2, strain D-2, Mueller-Hinton Broth pH 7.2, read-out: MIC
  MIC: 0.8 µg/mL (≈ 1.73 µM)
Pseudomonas aeruginosa [10]; pH 7.2, strain Genta. acetyl Capetown 18, Mueller-Hinton Broth pH 7.2, read-out: MIC
  MIC: 7.5 µg/mL (≈ 16.2 µM)
Pseudomonas aeruginosa [10]; pH 7.2, strain Genta. acetyl Stone 130, Mueller-Hinton Broth pH 7.2, read-out: MIC
  MIC: 17.5 µg/mL (≈ 37.8 µM)
Pseudomonas aeruginosa [10]; pH 7.2, strain NRRL B3223, Mueller-Hinton Broth pH 7.2, read-out: MIC
  MIC: 0.3 µg/mL (≈ 0.647 µM)
Pseudomonas aeruginosa [10]; pH 7.2, strain Stone 20, Mueller-Hinton Broth pH 7.2, read-out: MIC
  MIC: 3 µg/mL (≈ 6.47 µM)
Pseudomonas aeruginosa [10]; pH 7.2, strain Stone 39, Mueller-Hinton Broth pH 7.2, read-out: MIC
  MIC: 3 µg/mL (≈ 6.47 µM)
Pseudomonas aeruginosa [10]; pH 7.2, strain Stone 138, Mueller-Hinton Broth pH 7.2, read-out: MIC
  MIC: 17.5 µg/mL (≈ 37.8 µM)
Salmonella typhimurium
  MIC: 3 µg/mL (≈ 6.47 µM)
Serratia
  MIC: 0.8 µg/mL (≈ 1.73 µM)
Staphylococcus aureus [11]; ATCC6538P, pH 7.2, strain ATCC 6538P
  MIC: 0.3 µg/mL (≈ 0.647 µM)
Staphylococcus aureus [11]; pH 7.2, strain 59N
  MIC: 0.3 µg/mL (≈ 0.647 µM)
Staphylococcus aureus [11]; pH 7.2, strain 1118
  MIC: 3 µg/mL (≈ 6.47 µM)
Staphylococcus aureus [11]; pH 7.2, strain Grey
  MIC: 3 µg/mL (≈ 6.47 µM)
Staphylococcus aureus [11]; pH 7.2, strain Wood
  MIC: 0.08 µg/mL (≈ 0.173 µM)
Staphylococcus aureus [11]; pH 7.2, strain Ziegler
  MIC: 0.08 µg/mL (≈ 0.173 µM)
Streptococcus pyogenes [12]; pH 7.2, strain 27
  MIC: 7.5 µg/mL (≈ 16.2 µM)
Streptococcus pyogenes [12]; pH 7.2, strain Alvarez
  MIC: 7.5 µg/mL (≈ 16.2 µM)
Streptococcus pyogenes [12]; pH 7.2, strain C
  MIC: 3 µg/mL (≈ 6.47 µM)
Streptococcus pyogenes [12]; pH 7.2, strain Cruz
  MIC: 3 µg/mL (≈ 6.47 µM)
Streptococcus pyogenes [12]; pH 7.2, strain Karipeds
  MIC: 3 µg/mL (≈ 6.47 µM)
Streptococcus pyogenes [12]; pH 7.2, strain Labay
  MIC: 7.5 µg/mL (≈ 16.2 µM)
Trichophyton rubrum
  MIC: > 10 µg/mL
Escherichia coli [13]; Escherichia coli 6922, read-out: PD50
  ED50: 2.5 mg/kg
Escherichia coli [13]; Escherichia coli Sc., read-out: PD50
  ED50: 5 mg/kg
Pseudomonas aeruginosa [14]; Pseudomonas aeruginosa 2552, read-out: PD50
  ED50: 15.3 mg/kg
Pseudomonas aeruginosa [14]; Pseudomonas aeruginosa 2557, read-out: PD50
  ED50: 17.1 mg/kg
Pseudomonas aeruginosa [14]; sc, Pseudomonas aeruginosa Sc., read-out: PD50
  ED50: 2.5 mg/kg
Staphylococcus
  ED50: 6 mg/kg
Acute Toxicity; ip
  LD50: > 700 mg/kg
Acute Toxicity; iv
  LD50: 110 mg/kg
